# Reference: PMC11912270, “Synthesis and SAR Studies of Acyl-Thiourea Platinum(II) Complexes Yield Analogs with Dual-Stage Antiplasmodium Activity” (ACS Medicinal Chemistry Letters, 2025)
# What was measured:
# [1] = Glutathione binding UV-Vis titration; conditions: GSH binding
# Protocol: The binding of glutathione (GSH) to the platinum(II) complexes was monitored by observing the decrease in the metal-to-ligand-charge transfer (MLCT) band via a UV-Vis spectrophotometer.8 For this, 1–10 µL aliquots of GSH (0.4 M) in a PBS and DMSO (0.01% DMSO, v/v) mixture was added to a cuvette containing the relevant metal complex (50 µM) in the same solvent mixture. After each addition, the solution was stirred and allowed to incubate at room temperature for 3–5 minutes before recording the absorption spectrum between the wavelength range of 250–700 nm. These titrations were performed in triplicate and the average binding constants (logK) were reported with the standard error of the mean (SEM). The logK values were calculated from the best-fit model (describing a 1:1 association) using Equation 1.
# PfNF54 ABS parasites = test: SYBR Green I-based proliferative assay, PfNF54 ABS parasites; type: cell-based, Plasmodium falciparum; conditions: ABS, SYBR Green I, 96 h; mean ± S.E., N = 3 (no S.E.: N = 1)
# Protocol: (§1) The parasites were incubated under drug […]
# (§2) incubation, parasite survival was determined by adding equal volumes of parasite suspension (100 µL) and SYBR Green I lysis buffer (0.2% µL/mL of 10 000x SYBR Green I, 20 mM Tris-HCl, pH 7.5, 5 mM EDTA, 0.008% saponin (w/v) and 0.08% Triton x-100). This was incubated for 1 hour at room temperature in the dark. […]
# [2] = In vivo pharmacokinetics in female Balb/C mice; set-up: species or system mouse
# Protocol: In this regard, three replicates of female Balb/C mice were dosed at either 3 mg/kg (intravenously, i.v.) or 10 mg/kg (orally, p.o.). Blood was sampled at specific time intervals over 48 h. The corresponding PK parameters were calculated using noncompartmental analysis (Table 2). […]
# 1.9. Determination of pharmacokinetic parameters […]
# parameters. Compounds were administered either intravenously as a bolus solution […]
# Mice were allowed to eat and access water freely.
# To determine the PK parameters, blood samples were collected from the tail vein of the mice into heparinized microcentrifugation tubes at distinct sampling times (0.17, 0.5, 1, 3, 5, 7, 9, 24, and 48 hours for intravenous dosing; 0.5, 1, 3, 5, 7, 9, 24 and 48 hours for oral dosing). All samples were stored at -80 °C until extraction.
# For the bioanalysis, frozen whole blood was thawed at room temperature and 1-0 µL of each sample was extracted by protein precipitation (using 100 µL of acetonitrile containing 10 ng/ml of the internal standard, MMV394902). The sample was centrifuged. Supernatants of each sample were injected into the LC-MS/MS column for analysis. The analytical limit of quantitation (LOQ) was 2 ng/mL. The pharmacokinetic parameters were calculated using noncompartmental analysis using PK Solutions 2.0 (Summit Research Services, Montrose, CO, USA) and a curve stripping-based method. […]
# 1.11. Plasma protein binding (PPB)
# To determine the percentage of test compound bound to plasma, ultracentrifugation was used.
# The test compound (5 µM of a 10 mM DMSO stock) was used to spike pooled human plasma.
# An aliquot of the spiked solution was removed immediately and quenched with carbamazepine, […]
# [3] = Kinetic solubility by HPLC (pH 6.5); conditions: kinetic, HPLC, pH 6.5
# Protocol: 1.7. Kinetic solubility by HPLC (pH 6.5)
# Solubility was measured at pH 6.5 using an adapted miniaturized shake-flask method, in 96-well plate format.4,5 Briefly, 4 µL of a 10 mM stock in DMSO was added to a 96-well plate and evaporated using a GeneVac system. Phosphate buffer pH 6.5 was then added to the wells […]
# At the end of this incubation, the […]
# in the analysis plate. Analysis was then performed by HPLC-DAD and the solubility of each sample was determined from the corresponding calibration curve. […]
# PfK1 ABS parasites = type: cell-based, Plasmodium falciparum
# Protocol: as §1, §2
# red blood cells (RBCs) = test: Hemolysis assay; type: cell-based; conditions: up to 10 μM, 1 and 72 h
# Protocol: The hemolysis assay was conducted in a 96-well round-bottom plate. A 10 mM stock of the test compound in DMSO was diluted to 10 μM using complete growth medium. Complete growth medium (100 μL) was added to all wells in columns 1 and columns 3–12. The test compound in a complete growth medium (200 μL) were added in duplicate to well 2 and serially diluted two-fold down the plate (from wells 2–11). Triton X-100 (4%, v/v) was used as
# RBCs in complete growth medium
# (2% hematocrit) were lysed via three freeze/thaw cycles (-80 °C/37 °C) and were added to all wells in column 1 (100 µL). Intact RBCs in complete growth medium were added to wells 2– 12 and the plates were incubated at 37 °C for either 1 hour or 72 hours. After removing the plates from the incubator, each well was mixed thoroughly with a multichannel pipette and spun in a centrifuge at 750 rcf for 5 minutes. The supernatant was transferred to a 96-well flat-bottom plate and the absorbance of each well read on a microplate reader (Thermo Scientific
# Percentage hemolysis was calculated using Equation 2 and the graphs generated using GraphPad Prism 10.
# % ℎ𝑒𝑚𝑜𝑙𝑦𝑠𝑖𝑠 = (𝐴𝑠 ― 𝐴0) × 100 𝑬𝒒. 𝟐
# [4] = Single-point microsomal metabolic stability, mouse; type: in vitro ADME; conditions: mouse liver microsomes, 1 µM
# Protocol: (§3) 1.8. Microsomal metabolic stability studies […]
# (§4) rat IGS, Xenotech), and mouse (male mouse CD1, Xenotech) liver microsomes (0.4 mg/ml) for 30 min at 37 °C. Reactions were quenched by adding ice-cold acetonitrile containing […]
# (§5) disappearance of the parent compound. Half-life, clearance, and hepatic excretion ratios were determined using standard equations.6,7 Propranolol. […]
# [5] = Single-point microsomal metabolic stability, human; type: in vitro ADME; conditions: human liver microsomes, 1 µM
# Protocol: as §3, §4, §5
# [6] = test system: Chinese hamster ovary (CHO) cell line; test: MTT cytotoxicity assay; type: cell-based; conditions: cytotoxicity, MTT, 48 h; N, n = 1, 3; read-out: CHO IC50
# Protocol: 1.6.In vitro cytotoxicity assay
# A 3-(4,5-dimethylthiazol-2-yl)-2,5-diphenyltetrazoliumbromide (MTT) assay was used to screen the metal complexes against the mammalian Chinese hamster ovarian (CHO) cell line.
# A stock solution of each compound (2 mg/mL) in DMSO was prepared and kept at -20 °C until needed. Emetine was used as a reference drug. A starting concentration of 100 µg/mL was used, and serially diluted ten-fold using a complete medium to give the lowest concentration of 0.001 µg/mL (6 dilutions). The plates containing the CHO cells under drug pressure were […]
# Plates containing the drug and cell suspension were developed by adding 25 μL of sterile MTT (Thermo Fisher Scientific) (25 µL) to each well, followed by 4 h […]
# of incubation at room temperature in the dark. The plates were then centrifuged, and the supernatant was removed via aspiration. Sample absorbance was read at a wavelength of 540 […]
# analysis via GraphPad Prism v.4.0 software. The IC50 values were determined for each compound were determined from the dose-response curves. […]
# [7] = test system: early-stage gametocytes (NF54-PfS16-GFP-Luc); test: Luciferase reporter assay, early-stage gametocytes; type: cell-based, Plasmodium falciparum; conditions: single biological repeat
# Protocol: All the complexes were tested for their early- and late-stage gametocyte activity in a dual-point assay (1 μM and 5 μM). […]
# 1.5.In vitro activity against gametocyte stages
# PfNF54 gametocytes were prepared and isolated according to the method reported by Reader […]
# The in vitro gametocyte activity of the synthesized complexes was determined using a luciferase reporter line-based assay.
# NF54-PfS16-GFP-Luc parasites were used for the stage-specific assessment of gametocytocidal activity. Early-stage gametocyte (stage I-III) experiments were performed on day 5 (representing >90% of early-stage and late-stage gametocyte (stages IV/V) experiments were performed on day 10. In each experiment, assays were set up with the use of 2-3% […]
# Luciferase activity was determined in 30 µL parasite lysates by adding luciferin substrate (30 µL) (Promega Luciferase Assay System) at room temperature. […]
compound,measurement,setting,value
Nc1cc[n+]2c(c1)-c1cc(N)cc[n+]1[Pt-2]21[O+]=C(c2ccccc2)N=C(N(CCO)CCO)[S]1.[Cl-] [C6],Average logK ± SEM,"[1]; N = 3, PBS",2.58 ± 0.19
same,LogK N = 1,[1]; replicate N = 1,2.80
same,LogK N = 2,[1]; replicate N = 2,2.21
same,LogK N = 3,[1]; replicate N = 3,2.74
same,IC50,PfNF54 ABS parasites,36.3 ± 0.6 nM
same,CLs i.v.,[2]; 3 mg/kg i.v.,46.4 mL/min/kg
same,T1/2 i.v.,[2]; 3 mg/kg i.v.,10.8 h
same,T1/2 p.o.,[2]; 10 mg/kg p.o.,12.0 h
same,Bioavailability,[2]; 10 mg/kg p.o. vs 3 mg/kg i.v.,3.8%
same,Vss i.v.,"[2]; female Balb/C mice, 3 mg/kg i.v.",45.6 L/kg
same,Vssu,"[2]; i.v., unbound fraction",4560 L/kg
same,CLu,"[2]; p.o., unbound fraction",> 1000 mL min^–1 kg^–1
same,CLu i.v.,"[2]; unbound fraction, Clu = Cls/Fu, i.v.",>1000 mL/min/kg
same,Vssu i.v.,"[2]; unbound fraction, Vssu = Vss/Fu, 3 mg/kg i.v.",4560 L/kg
same,Aqueous solubility pH 6.5,[3],100 μM
same,IC50,"PfK1 ABS parasites; ABS, SYBR Green I, 96 h, mean ± S.E.",102 ± 13 nM
same,RI (resistance index),PfK1 ABS parasites; RI = PfK1 IC50/PfNF54 IC50,2.8
same,in vitro hemolytic activity,red blood cells (RBCs),do not induce hemolysis
same,Microsomal metabolic stability (% remaining after 30 min) Mouse,[4],94 % remaining
same,Microsomal metabolic stability (% remaining after 30 min) Human,[5],43 % remaining
same,IC50,[6],> 50000 nM
same,EG (% inhibition) 1 µM,[7]; 1 µM,13.7 % inhibition
same,EG (% inhibition) 5 µM,[7]; 5 µM,20.1 % inhibition
